We go through nine compounds from patent US20240165243A1, “EGFR DEGRADERS AND METHODS OF USE” (BeiGene Switzerland GmbH, priority 2021, published 2024).

Holding throughout (assay type): cell-based
The subject of experiment [1] is EGFR (Del19/T790M/C797S). The experiment is described as follows: Cell degradation HTRF assay, BaF3-DTC cells. To be noted: 16 h treatment; for DC50: HTRF; for DTC Dmax (%): maximum percentage of degradation. How it is done: (§1) Cell Degradation of Example 1-28
(§2) BaF3-LTC (L858R/T790M/C797S) and BaF3-DTC (Del19/T790M/C797S) cells are treated with compounds diluted in 0.2% DMSO cell culture medium and incubate for 16 h, 37° C., 5% CO2. The final concentration of compounds in all assay is start with 10 uM, 4-fold dilution, total 8 doses were included.
(§3) After 16 h treatment, add HTRF lysis buffer to each well; seal the plate and incubate 1 hour at room temperature on a plate shaker; Once the cells are lysed, 16 μL of cell lysate are transferred to a PE 384-well HTRF detection plate; 4 μL of pre-mixed HTRF antibodies are added to each well; Cover the plate with a plate sealer, spin 1000 rpm for 1 min, Incubate overnight at room temperature; Read on BMG PheraStar with HTRF protocol (337 nm-665 nm-620 nm). The inhibition (degradation) percentage of the compound was calculated by the following equation:
(§4) Inhibition percentage of Compound=100−100×(Signal−low control)/(High control−low control), wherein signal=each test compound group.
(§5) High control=Cell group with added DMSO and without compound, indicating microplate readings without EGFR degradation;
(§6) Dmax is the maximum percentage of inhibition (degradation).
(§7) The IC50 (DC50) value of a compound can be obtained by fitting the following equation
(§8) Y=Bottom+(TOP−Bottom)/(1+((C50/X)^hillslope))
(§9) Wherein, X and Y are known values, and IC50, Hillslope, Top and Bottom are the parameters obtained by fitting with software. Y is the inhibition percentage (calculated from the equation), X is the concentration of the compound; IC50 is the concentration of the compound when the 50% inhibition is reached. The smaller the IC50 value is, the stronger the inhibitory ability of the compound is. Vice versa, the higher the IC50 value is, the weaker the ability the inhibitory ability of the compound is; Hillslope represents the slope of the fitted curve, generally around 1*; Bottom represents the minimum value of the curve obtained by data fitting, which is generally 000±20%; Top represents the maximum value of the curve obtained by data fitting, which is generally 100%±20%. The experimental data were fitted by calculating and analyzing with Dotmatics data analysis software. When Dmax<50%, DC50 will be automatically assigned as larger than […].
(In general: Time-resolved FRET reads energy transfer from a long-lived donor to a nearby acceptor.)

Experiment [2] has as its target T1, EGFR (L858R/T790M/C797S) (Homo sapiens, UniProt P00533, C797S/L858R/T790M). Nature of the experiment: Cell degradation HTRF assay, BaF3-LTC cells. Also noted: expressed in transfected cells; host or cells: BaF3-LTC. The note with it: 16 h treatment; for DC50: HTRF; for Dmax: maximum percentage of degradation. How it is done:
as §1, §2, §3, §4, §5, §6, §7, §8, §9

Experiment [3] relates to EGFR (Del19/T790M/C797S). The experiment is described as follows: Cell degradation HTRF assay, H1975-clone #28 cells. The note with it: H1975-clone #28 (Del19/T790M/C797S) cells, 16 h treatment. The essentials:
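H1975 clones #25 and #28 were treated 16 h at 37° C, 5% CO2 with 8 doses (top 10 uM, 5-fold dilution) in 0.2% DMSO medium. EGFR in lysates read by HTRF (665/620 nm); degradation % relative to DMSO high control; DC50 from 4-parameter fit, Dmax = maximal degradation.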

For experiment [4], the target named is T1, EGFR (L858R/T790M/C797S). The experiment is described as follows: Cell degradation HTRF assay, H1975-clone #25 cells. The note with it: H1975-clone #25 (L858R/T790M/C797S) cells, 16 h treatment. How it is done:
Cell Degradation of Example 124-189
H1975-#28 and H1975-#25 cells are treated with compounds diluted in 0.2% DMSO cell culture medium on day 2, incubate for 16 h, 37° C., 5% CO2. the final concentration of compounds in all assay is start with 10 uM, 5-fold dilution, total 8 doses were included.
After 16 h treatment, add HTRF lysis buffer to each well; seal the plate and incubate 1 hour at room temperature on a plate shaker; Once the cells are lysed, 16 μL of cell lysate are transferred to a PE 384-well HTRF detection plate; 4 μL of pre-mixed HTRF antibodies are added to each well; Cover the plate with a plate sealer, spin 1000 rpm for 1 min, Incubate overnight at room temperature; Read on BMG PheraStar with HTRF protocol (337 nm-665 nm-620 nm).
The inhibition (degradation) percentage of the compound was calculated by the following equation:
as §4, §5, §6, §7
Y=Bottom+(TOP−Bottom)/(1+((IC50/X)^hillslope))
as §9, with “0%±20%;” for “000±20%;”

T1 sequence (P00533 25-1210 T790M/C797S/L858R): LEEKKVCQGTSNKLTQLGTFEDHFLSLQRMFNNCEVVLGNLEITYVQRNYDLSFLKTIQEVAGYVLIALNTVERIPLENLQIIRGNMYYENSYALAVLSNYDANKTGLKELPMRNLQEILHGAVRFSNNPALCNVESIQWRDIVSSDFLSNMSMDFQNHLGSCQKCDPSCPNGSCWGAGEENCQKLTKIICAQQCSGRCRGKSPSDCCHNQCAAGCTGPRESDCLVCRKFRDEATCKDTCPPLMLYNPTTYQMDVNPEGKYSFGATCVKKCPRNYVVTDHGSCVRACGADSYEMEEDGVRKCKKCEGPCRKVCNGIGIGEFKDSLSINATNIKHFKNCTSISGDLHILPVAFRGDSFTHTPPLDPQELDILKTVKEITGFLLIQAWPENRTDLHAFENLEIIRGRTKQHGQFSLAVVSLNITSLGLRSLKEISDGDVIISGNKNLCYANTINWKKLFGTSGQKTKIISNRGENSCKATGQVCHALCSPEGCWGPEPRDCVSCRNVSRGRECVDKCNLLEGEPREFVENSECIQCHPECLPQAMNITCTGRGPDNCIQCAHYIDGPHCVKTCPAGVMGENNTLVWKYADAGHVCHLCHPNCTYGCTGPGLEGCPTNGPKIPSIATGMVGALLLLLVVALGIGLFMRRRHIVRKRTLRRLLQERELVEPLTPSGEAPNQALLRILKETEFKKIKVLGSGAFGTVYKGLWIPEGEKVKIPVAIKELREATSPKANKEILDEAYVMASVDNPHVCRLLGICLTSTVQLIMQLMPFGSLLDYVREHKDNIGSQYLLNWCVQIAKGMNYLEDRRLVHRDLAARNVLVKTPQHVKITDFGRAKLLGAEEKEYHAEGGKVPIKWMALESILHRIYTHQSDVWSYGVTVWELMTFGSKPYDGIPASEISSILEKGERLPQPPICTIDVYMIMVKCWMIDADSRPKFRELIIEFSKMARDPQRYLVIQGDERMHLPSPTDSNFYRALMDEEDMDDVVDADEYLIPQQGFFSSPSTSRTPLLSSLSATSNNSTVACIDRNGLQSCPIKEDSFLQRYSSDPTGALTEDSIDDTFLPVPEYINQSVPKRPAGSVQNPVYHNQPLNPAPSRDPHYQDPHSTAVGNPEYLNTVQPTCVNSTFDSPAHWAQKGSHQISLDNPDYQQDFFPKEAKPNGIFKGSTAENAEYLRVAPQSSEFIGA

By DC50 is commonly meant the concentration at which degradation of the target reaches its halfway point. By Dmax is commonly meant the largest share of the target that was removed. Consider `CCc1cc(Nc2ncc(Br)c(Nc3cnc4ccccc4c3P(C)(C)=O)n2)c(OC)cc1N1CCC(N2CCN(C(=O)[C@H]3C[C@H](N(C)c4cc(F)c(C5CCC(=O)NC5=O)c(F)c4)C3)CC2)CC1` (stereo partly drawn) [Example 18, 3-(4-(((1r,3r)-3-(4-(1-(4-((5-bromo-4-((4-(dimethylphosphoryl)quinolin-3-yl)amino)pyrimidin-2-yl)amino)-2-ethyl-5-methoxyphenyl)piperidin-4-yl)piperazine-1-carbonyl)cyclobutyl)(methyl)amino)-2,6-difluorophenyl)piperidine-2,6-dione], for which, in the experiment with EGFR (Del19/T790M/C797S) [1], the half-maximal degradation concentration (DC50) turned out to be 3.95 nM and the “DTC Dmax (%)” value is listed as 97.59%. On EGFR (L858R/T790M/C797S) [2], this compound registered a DC50 of 14.6 nM and a maximal degradation (Dmax) of 90.7%.

As to `CCc1cc(Nc2ncc(Br)c(Nc3cnc4ccccc4c3P(C)(C)=O)n2)c(OC)cc1N1CCC(N2CCN(CC3CN(c4cc(F)c(C5CCC(=O)NC5=O)c(F)c4)C3)CC2)CC1` (stereo not drawn) [Example 19, 3-(4-(3-((4-(1-(4-((5-bromo-4-((4-(dimethylphosphoryl)quinolin-3-yl)amino)pyrimidin-2-yl)amino)-2-ethyl-5-methoxyphenyl)piperidin-4-yl)piperazin-1-yl)methyl)azetidin-1-yl)-2,6-difluorophenyl)piperidine-2,6-dione], in the experiment with EGFR (Del19/T790M/C797S) [1], the half-maximal degradation concentration (DC50) turned out to be 4.24 nM and the “DTC Dmax (%)” value was determined as 97.44%. Further, at EGFR (L858R/T790M/C797S) [2], the DC50 amounted to 8.02 nM and the greatest degradation seen (Dmax) amounted to 89.4%.

Turning to `CCc1cc(Nc2ncc(Br)c(Nc3cnc4ccccc4c3P(C)(C)=O)n2)c(OC)cc1N1CCC(N2CCN(C(=O)C3CN(c4cc(F)c(C5CCC(=O)NC5=O)c(F)c4)C3)CC2)CC1` (stereo not drawn) [Example 20, 3-(4-(3-(4-(1-(4-((5-bromo-4-((4-(dimethylphosphoryl)quinolin-3-yl)amino)pyrimidin-2-yl)amino)-2-ethyl-5-methoxyphenyl)piperidin-4-yl)piperazine-1-carbonyl)azetidin-1-yl)-2,6-difluorophenyl)piperidine-2,6-dione], in the experiment with EGFR (Del19/T790M/C797S) [1], the DC50 came out at 4.65 nM and the “DTC Dmax (%)” value was found to be 96.7%. On EGFR (L858R/T790M/C797S) [2], this compound displayed a 50% degradation concentration (DC50) of 19.5 nM and a Dmax of 89.5%.

As for `CCc1cc(Nc2ncc(Br)c(Nc3cnc4ccccc4c3P(C)(C)=O)n2)c(OC)cc1N1CCC(N2CCN(CCc3cccc4c3n(C)c(=O)n4C3CCC(=O)NC3=O)CC2)CC1` (stereo not drawn) [Example 21, 3-(4-(2-(4-(1-(4-((5-bromo-4-((4-(dimethylphosphoryl)quinolin-3-yl)amino)pyrimidin-2-yl)amino)-2-ethyl-5-methoxyphenyl)piperidin-4-yl)piperazin-1-yl)ethyl)-3-methyl-2-oxo-2,3-dihydro-1H-benzo[d]imidazol-1-yl)piperidine-2,6-dione], in the experiment with EGFR (Del19/T790M/C797S) [1], the half-maximal degradation concentration (DC50) amounted to 1.11 nM and the “DTC Dmax (%)” value was 94.17%. On EGFR (L858R/T790M/C797S) [2], this compound returned a half-maximal degradation concentration (DC50) of 5.02 nM and a maximal degradation (Dmax) of 93.3%.

With `CCc1cc(Nc2ncc(Br)c(Nc3cnc4ccccc4c3P(C)(C)=O)n2)c(OC)cc1N1CCC(N2CCN(C(=O)C3CC4(CC(Nc5cc(F)c(C6CCC(=O)NC6=O)c(F)c5)C4)C3)CC2)CC1` (stereo not drawn) [Example 23, 3-(4-((6-(4-(1-(4-((5-bromo-4-((4-(dimethylphosphoryl)quinolin-3-yl)amino)pyrimidin-2-yl)amino)-2-ethyl-5-methoxyphenyl)piperidin-4-yl)piperazine-1-carbonyl)spiro[3.3]heptan-2-yl)amino)-2,6-difluorophenyl)piperidine-2,6-dione], in the experiment with EGFR (Del19/T790M/C797S) [1], the DC50 stood at 2.22 nM and the “DTC Dmax (%)” value is 94.5%. At EGFR (L858R/T790M/C797S) [2], this compound displayed a DC50 of 11.1 nM and a Dmax of 88.6%.

For the compound `CCc1cc(Nc2ncc(Br)c(Nc3cnc4ccccc4c3P(C)(C)=O)n2)c(OC)cc1N1CCC(N2CCN(CCc3ccc4c(c3)C3(CC3)C(=O)N4C3CCC(=O)NC3=O)CC2)CC1` (stereo not drawn) [Example 24, 3-(5′-(2-(4-(1-(4-((5-bromo-4-((4-(dimethylphosphoryl)quinolin-3-yl)amino)pyrimidin-2-yl)amino)-2-ethyl-5-methoxyphenyl)piperidin-4-yl)piperazin-1-yl)ethyl)-2′-oxospiro[cyclopropane-1,3′-indolin]-1′-yl)piperidine-2,6-dione], in the experiment with EGFR (Del19/T790M/C797S) [1], half-maximal degradation (DC50) was put at 2.88 nM and the “DTC Dmax (%)” value is on record as 84.3%. At EGFR (L858R/T790M/C797S) [2], this compound came in with a half-maximal degradation concentration (DC50) of 27.5 nM and a Dmax of 89.6%.

On to `CCc1cc(Nc2ncc(Br)c(Nc3cnc4ccccc4c3P(C)(C)=O)n2)c(OC)cc1N1CCC(N2CCN(C(=O)C3CN(c4ccc5c(cnn5C5CCC(=O)NC5=O)c4)C3)CC2)CC1` (stereo not drawn) [Example 25, 3-(5-(3-(4-(1-(4-((5-bromo-4-((4-(dimethylphosphoryl)quinolin-3-yl)amino)pyrimidin-2-yl)amino)-2-ethyl-5-methoxyphenyl)piperidin-4-yl)piperazine-1-carbonyl)azetidin-1-yl)-1H-indazol-1-yl)piperidine-2,6-dione], for which, in the experiment on EGFR (Del19/T790M/C797S) [1], the DC50 is 1.8 nM and the “DTC Dmax (%)” value is recorded as 88.68%. At EGFR (L858R/T790M/C797S) [2], this compound registered a 50% degradation concentration (DC50) of 6.77 nM and a Dmax of 85%.

For the compound `CCc1cc(Nc2ncc(Br)c(Nc3cnc4cnccc4c3P(C)(C)=O)n2)c(OC)cc1N1CCC(N2CCN(CCc3cc(F)c(C4CCC(=O)NC4=O)c(F)c3)CC2)CC1` (stereo not drawn) [Example 28, 3-(4-(2-(4-(1-(4-((5-bromo-4-((4-(dimethylphosphoryl)-1,7-naphthyridin-3-yl)amino)pyrimidin-2-yl)amino)-2-ethyl-5-methoxyphenyl)piperidin-4-yl)piperazin-1-yl)ethyl)-2,6-difluorophenyl)piperidine-2,6-dione], in the experiment on EGFR (Del19/T790M/C797S) [1], the DC50 was 5.4 nM and the “DTC Dmax (%)” value worked out at 90.9%. At EGFR (L858R/T790M/C797S) [2], this compound registered a DC50 of 8.95 nM and a Dmax of 81.9%.

With `CCOc1cc(N2CCC(N3CCN(CCc4cccc5c4n(C)c(=O)n5C4CCC(=O)NC4=O)CC3)CC2)c(CC)cc1Nc1ncc(Br)c(Nc2cnc3ccc(F)cc3c2P(C)(C)=O)n1` (stereo not drawn) [Example 124, 3-(4-(2-(4-(1-(4-((5-bromo-4-((4-(dimethylphosphoryl)-6-fluoroquinolin-3-yl)amino)pyrimidin-2-yl)amino)-5-ethoxy-2-ethylphenyl)piperidin-4-yl)piperazin-1-yl)ethyl)-3-methyl-2-oxo-2,3-dihydro-1H-benzol[d]imidazol-1-yl) piperidine-2,6-dione], the 50% degradation concentration (DC50) in the experiment with EGFR (Del19/T790M/C797S) [3] (HTRF, read-out: H1975-clone#28 DTC DC50) was 1.4 nM; on EGFR (L858R/T790M/C797S) [4] (HTRF, read-out: H1975-clone#25 LTC DC50) it was 3.4 nM. The “H1975-clone#28 DTC Dmax (%)” value in the experiment with EGFR (Del19/T790M/C797S) [3] (maximum percentage of degradation) turned out to be 73%. Further, on EGFR (L858R/T790M/C797S) [4] (maximum percentage of degradation, read-out: H1975-clone#25 LTC Dmax (%)), the Dmax came out at 77%.
